According to patent US7687482B2, “Bisphosphonate compounds and methods” (The Board of Trustees of the University of Illinois, priority 2006, dated 2010):
Read-outs that look alike come from different tables or passages of the source.

How the values were obtained:
D. discoideum = D. discoideum growth inhibition; assay type: cell-based, Dictyostelium discoideum
Human FPPS = target: T1, Human FPPS (Homo sapiens, UniProt P14324); assay: Human FPPS inhibition; assay type: biochemical
T1 sequence (P14324 1-419): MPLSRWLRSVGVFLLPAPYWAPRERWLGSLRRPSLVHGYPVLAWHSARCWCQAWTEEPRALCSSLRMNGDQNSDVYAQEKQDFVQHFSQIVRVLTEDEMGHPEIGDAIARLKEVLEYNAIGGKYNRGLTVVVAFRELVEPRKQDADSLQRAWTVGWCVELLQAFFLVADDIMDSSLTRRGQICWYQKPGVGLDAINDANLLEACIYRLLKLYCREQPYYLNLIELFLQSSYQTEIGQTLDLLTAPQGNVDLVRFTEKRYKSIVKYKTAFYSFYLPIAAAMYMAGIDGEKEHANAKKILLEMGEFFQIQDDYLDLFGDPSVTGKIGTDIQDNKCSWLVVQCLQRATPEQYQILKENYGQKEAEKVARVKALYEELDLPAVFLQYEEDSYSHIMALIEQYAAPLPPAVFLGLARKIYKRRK

Gammadelta T cell = Gammadelta T cell stimulation; assay type: cell-based, human
T. brucei FPPS = T. brucei FPPS (Trypanosoma brucei, UniProt Q57WF1); assay: biochemical
MCF-7 cell = assay: Tumor cell growth inhibition, MCF-7; assay type: cell-based, human; details: breast cancer cell line
Description: (§1) Bisphosphonate compounds were tested regarding tumor cell growth inhibition. […] See Table 1 and FIG. 3 showing dose-response data.

NCI-H460 cell = assay: Tumor cell growth inhibition, NCI-H460; assay type: cell-based, human; details: lung cancer cell line
Description: as §1

SF-268 cell = assay: Tumor cell growth inhibition, SF-268; assay type: cell-based, human; details: central nervous system (glioblastoma) cell line
Description: as §1

[1] = target: undecaprenyl diphosphate synthase (UPPS) (Escherichia coli, UniProt P60472); assay: UPPS inhibition; assay type: biochemical
Description: Certain compounds were also tested regarding the ability to inhibit undecaprenyl diphosphate synthase (UPPS). See results in Table 2. […] For example, an antibacterial treatment can include contacting a bacterial cell with a compound of the invention. In an embodiment, a bacterial cell can be, e.g., a Gram negative organism such as E. coli or a Gram positive organism such as Staphylococcus aureus.

E. coli = assay: Anti-bacterial activity in E. coli; assay type: cell-based, Escherichia coli
Description: We considered aspects of mevalonate and non-mevalonate pathway gene regulation.

[2] = Dictyostelium discoideum; read-out: D. discoideum IC50

Sequence of T. brucei FPPS (Q57WF1 entry or part of it): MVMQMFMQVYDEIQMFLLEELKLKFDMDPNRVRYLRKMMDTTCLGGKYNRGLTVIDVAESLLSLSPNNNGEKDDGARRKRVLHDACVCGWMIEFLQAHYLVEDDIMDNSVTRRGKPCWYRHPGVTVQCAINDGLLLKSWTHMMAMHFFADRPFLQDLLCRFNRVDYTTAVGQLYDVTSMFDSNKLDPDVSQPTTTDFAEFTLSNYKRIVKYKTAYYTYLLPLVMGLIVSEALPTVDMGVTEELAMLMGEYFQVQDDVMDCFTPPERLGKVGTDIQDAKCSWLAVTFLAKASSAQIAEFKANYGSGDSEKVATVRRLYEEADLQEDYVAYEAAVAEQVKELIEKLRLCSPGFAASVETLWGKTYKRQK
Sequence of undecaprenyl diphosphate synthase (UPPS) (P60472 whole entry): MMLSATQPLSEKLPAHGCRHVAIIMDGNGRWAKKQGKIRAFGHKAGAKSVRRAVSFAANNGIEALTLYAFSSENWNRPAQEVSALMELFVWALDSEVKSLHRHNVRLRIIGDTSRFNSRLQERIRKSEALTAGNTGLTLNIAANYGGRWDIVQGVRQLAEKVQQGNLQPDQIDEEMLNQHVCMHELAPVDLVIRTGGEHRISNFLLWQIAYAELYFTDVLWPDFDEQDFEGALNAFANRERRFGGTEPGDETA

1-hydroxy-3-(trimethylphosphoniumyl)propylidene-1,1-bisphosphonic acid [Compound 9]
IC50 (D. discoideum; read-out: D. discoideum IC50): 207 µM | Ki (Human FPPS): 0.0226 µM | EC50 (Gammadelta T cell): 1800 µM

NCCC(O)(P(=O)(O)O)P(=O)(O)O [1 (Pamidronate), Pamidronate, reference compound]
IC50 (D. discoideum; [2]): 167 µM

NCCCC(O)(P(=O)(O)O)P(=O)(O)O [2 (alendronate), alendronate, reference compound]
IC50 (D. discoideum; [2]): 32 µM | EC50 (Gammadelta T cell; Homo sapiens, T-cell): 52 µM

O=P(O)(O)C(O)(Cc1cccnc1)P(=O)(O)O [3 (risedronate), risedronate, reference compound]
EC50 (Gammadelta T cell; Homo sapiens, T-cell): 6.2 µM

O=P(O)(O)C(O)(Cn1ccnc1)P(=O)(O)O [4 (zoledronate), zoledronate, reference compound]
IC50 (T. brucei FPPS): 0.32 µM | IC50 (D. discoideum; Dictyostelium discoideum, read-out: D. discoideum IC50): 1.9 µM

O=P(O)(O)C(O)(C[S+]1CCCCC1)P(=O)(O)O [Compound 6, 1-hydroxy-2-(pentamethylenesulfoniumyl)ethylidene-1,1-bisphosphonic acid]
IC50 (T. brucei FPPS; read-out: T. brucei FPPS IC50): 0.4 µM | IC50 (D. discoideum; read-out: D. discoideum IC50): 4.78 µM | EC50 (Gammadelta T cell): 22.1 µM

C[P+](C)(C)CC(O)(P(=O)(O)O)P(=O)(O)O [Compound 7, 1-hydroxy-2-(trimethylphosphoniumyl)ethylidene-1,1-bisphosphonic acid]
IC50 (T. brucei FPPS; read-out: T. brucei FPPS IC50): 2 µM | IC50 (D. discoideum; read-out: D. discoideum IC50): 13.8 µM | Ki (Human FPPS): 0.00818 µM | EC50 (Gammadelta T cell): 127 µM

CC[S+](CCCOc1ccccc1)CCC(O)(P(=O)(O)O)P(=O)(O)O (centres unmarked) [Compound 16, 1-hydroxy-3-(S-ethyl-3-phenoxypropylsulfoniumyl)propylidene-1,1-bisphosphonic acid]
IC50 (D. discoideum; read-out: D. discoideum IC50): 4.23 µM | Ki (Human FPPS): 0.0052 µM | EC50 (Gammadelta T cell): 199 µM

C[S+](CCCc1ccccc1)CC(O)(P(=O)(O)O)P(=O)(O)O (centres unmarked) [Compound 23, 1-hydroxy-2-(S-methyl-3-phenylpropylsulfoniumyl)ethylidene-1,1-bisphosphonic acid]
IC50 (T. brucei FPPS; read-out: T. brucei FPPS IC50): 0.18 µM | IC50 (D. discoideum; read-out: D. discoideum IC50): 1.85 µM | Ki (Human FPPS): 0.00568 µM

O=P(O)(O)C(Cc1ccc(Br)c(Br)c1)P(=O)(O)O [Compound 491, 2-(3,4-Dibromophenyl)ethylidene-1,1-bisphosphonic acid]
IC50 (MCF-7 cell): 533 µM | IC50 (NCI-H460 cell): 446 µM | IC50 (SF-268 cell): 349 µM

CC(C)(C)C(=O)OCOP(=O)(OCOC(=O)C(C)(C)C)C(Cc1ccc(Br)c(Br)c1)P(=O)(OCOC(=O)C(C)(C)C)OCOC(=O)C(C)(C)C [Compound 493, Tetrakis-pivaloyloxymethyl 2-(3,4-dibromophenyl)ethylidene-1,1-bisphosphonate]
IC50 (MCF-7 cell): 0.22 µM | IC50 (NCI-H460 cell): 0.62 µM | IC50 (SF-268 cell): 0.65 µM

CC(C)(C)C(=O)OCOP(=O)(OCOC(=O)C(C)(C)C)C(Cc1ccc(Cl)c(Cl)c1)P(=O)(OCOC(=O)C(C)(C)C)OCOC(=O)C(C)(C)C [Compound 494, Tetrakis-pivaloyloxymethyl 2-(3,4-dichlorophenyl)ethylidene-1,1-bisphosphonate]
IC50 (MCF-7 cell): 0.34 µM | IC50 (NCI-H460 cell): 2.7 µM | IC50 (SF-268 cell): 1.43 µM

CC(C)OC(=O)OCOP(=O)(OCOC(=O)OC(C)C)C(Cc1ccc(Cl)c(Cl)c1)P(=O)(OCOC(=O)OC(C)C)OCOC(=O)OC(C)C [Compound 495, Tetrakis-isopropoxycarboxymethyl 2-(3,4-dichlorophenyl)ethylidene-1,1-bisphosphonate]
IC50 (MCF-7 cell): 1.97 µM | IC50 (NCI-H460 cell): 4.85 µM | IC50 (SF-268 cell): 4.78 µM

O=P(O)(O)C(O)(Cc1cccc(-c2cccc(-c3ccccc3)c2)c1)P(=O)(O)O [Compound 608, 1-Hydroxy-2-[3-(3-phenylphenyl)phenyl]ethylidene-1,1-bisphsophonic acid]
IC50 (MCF-7 cell; Homo sapiens, MCF7): 152 µM | IC50 (NCI-H460 cell; Homo sapiens, NCI-H460): 140 µM | IC50 (SF-268 cell; Homo sapiens, SF-268): 130 µM | IC50 [1]: 0.61 µM

O=P(O)(O)C(O)(CCc1cccc(-c2ccc(-c3ccccc3)cc2)c1)P(=O)(O)O [Compound 618, 1-Hydroxy-3-[3-(4-phenylphenyl)phenyl]propylidene-1,1-bisphosphonic acid]
IC50 (MCF-7 cell): 196 µM | IC50 (NCI-H460 cell): 132 µM | IC50 (SF-268 cell): 175 µM | IC50 [1]: 12.5 µM

O=P(O)(O)C(O)(CCc1cccc(-c2ccccc2-c2ccccc2)c1)P(=O)(O)O [Compound 621, 1-Hydroxy-3-[3-(2-phenylphenyl)phenyl]propylidene-1,1-bisphosphonic acid]
IC50 (MCF-7 cell; Homo sapiens, MCF7): 146 µM | IC50 (NCI-H460 cell; Homo sapiens, NCI-H460): 133 µM | IC50 (SF-268 cell; Homo sapiens, SF-268): 143 µM | IC50 [1]: 7.51 µM

O=P(O)(O)C(O)(CCc1cccc(-c2cccc(-c3ccccc3)c2)c1)P(=O)(O)O [Compound 622, 1-Hydroxy-3-[3-(3-phenylphenyl)phenyl]propylidene-1,1-bisphsophonic acid]
IC50 (MCF-7 cell; Homo sapiens, MCF7): 43.9 µM | IC50 (NCI-H460 cell; Homo sapiens, NCI-H460): 46.9 µM | IC50 (SF-268 cell; Homo sapiens, SF-268): 44.7 µM | IC50 [1]: 2.39 µM

O=P(O)(O)C(O)(Cc1cccc(-c2ccccc2-c2ccccc2)c1)P(=O)(O)O [Compound 623, 1-Hydroxy-2-[3-(2-phenylphenyl)phenyl]ethylidene-1,1-bisphsophonic acid]
IC50 (MCF-7 cell): 92.7 µM | IC50 (NCI-H460 cell): 86.1 µM | IC50 (SF-268 cell): 58 µM

O=P(O)(O)C(O)(Cc1ccc(-c2ccccc2-c2ccccc2)cc1)P(=O)(O)O [Compound 624, 1-Hydroxy-2-[4-(2-phenylphenyl)phenyl]ethylidene-1,1-bisphosphonic acid]
IC50 (MCF-7 cell): 1060 µM | IC50 (NCI-H460 cell): 329 µM | IC50 (SF-268 cell): 475 µM

O=P(O)(O)C(O)(Cc1ccc(-c2cccc(-c3ccccc3)c2)cc1)P(=O)(O)O [Compound 625, 1-Hydroxy-2-[4-(3-phenylphenyl)phenyl]ethylidene-1,1-bisphosphonic acid]
IC50 (MCF-7 cell; Homo sapiens, MCF7): 412 µM | IC50 (NCI-H460 cell; Homo sapiens, NCI-H460): 413 µM | IC50 (SF-268 cell; Homo sapiens, SF-268): 620 µM | IC50 [1]: 0.89 µM

O=P(O)(O)C(O)(c1cccc(-c2cccc(-c3ccccc3)c2)c1)P(=O)(O)O [Compound 640, 1-Hydroxy-[3-(3-phenylphenyl)phenyl]methylene-1,1-bisphsophonic acid]
IC50 (MCF-7 cell; Homo sapiens, MCF7): 310 µM | IC50 (NCI-H460 cell; Homo sapiens, NCI-H460): 285 µM | IC50 (SF-268 cell; Homo sapiens, SF-268): 303 µM | IC50 [1]: 1.86 µM

CC(C)(C)C(=O)OCOP(=O)(OCOC(=O)C(C)(C)C)C(Cc1cccc(-c2cccc(-c3ccccc3)c2)c1)P(=O)(OCOC(=O)C(C)(C)C)OCOC(=O)C(C)(C)C [Compound 647, Tetrakis-pivaloyloxymethyl 2-[3-(3-phenylphenyl)phenyl]ethylidene-1,1-bisphosphonate]
IC50 (MCF-7 cell): 2.62 µM | IC50 (NCI-H460 cell): 1.64 µM | IC50 (SF-268 cell): 2.38 µM

O=CN(O)CCCP(=O)(O)O [fosmidomycin]
anti-bacterial properties (E. coli): anti-bacterial properties

Tetrakis-isopropoxycarboxymethyl 2-(3,4-difluorophenyl)ethylidene-1,1-bisphosphonate [Compound 496]
IC50 (MCF-7 cell): 15.2 µM | IC50 (NCI-H460 cell): 20.1 µM | IC50 (SF-268 cell): 28.3 µM

Tetrakis-isopropoxycarboxymethyl 2-(3-cyanophenyl)ethylidene-1,1-bisphosphonate [Compound 498]
IC50 (MCF-7 cell): 58.6 µM | IC50 (NCI-H460 cell): 22.6 µM | IC50 (SF-268 cell): 7.77 µM
